From patent US20140100165A1, “PREVENTION OF KIDNEY INJURY OR DISEASE” (University of Florida Research Foundation, priority 2012, published 2014)
Like-named read-outs stand apart in the source and are kept apart here.

Tests used:
[1] = system: complete warm ischemia in the kidney; conditions: pigs; 200 μg/kg, 10 ml i.v. bolus during 1 minute, seven doses; cited from earlier work
[2] = Example 3: evaluation of rate of infusion of AP214 (adverse events, tolerability); type: in vivo, human
Protocol: To establish a suitable rate of infusion of AP214 a set of patient trials were performed.
AP214 isotonic solution single ascending doses (25, 50 and 100 μg/kg) for intravenous infusion administered over 10 minutes, or placebo (saline infusion).
AP214 isotonic solution single doses (100 μg/kg over 1 minute; 100 μg/kg over 30 seconds; 200 μg/kg over 30 seconds) for intravenous infusion.

[3] = system: Acute Kidney Injury (AKI) in patients undergoing cardiac surgery; test: Example 1: prevention of AKI by different dosage regimes of AP214 in patients undergoing cardiac surgery; type: in vivo, human
Protocol: Each of 12 patients undergoing cardiac surgery (the AP214 group) was dosed with 600 μg/kg AP214: 200 μg/kg at skin incision, 200 μg/kg at cross clamp release, and 200 μg/kg 6-hour after cross clamp release. Each dosage was provided over a period of 10 minutes. The placebo group included 13 patients undergoing cardiac surgery without AP214 infusion.
Objectives • trial objective was to assess the effect of AP214 on • 1) changes in serum creatinine, cystatin-C and carbamade, • 2) on eGFR and • 3) on the development of post-surgical acute kidney injury (AKI) • AKI also assessed (post-hoc analysis) by AKIN and RIFLE
Three different definitions of AKI were tested: • 1) 3 patients in the AP214 group developed AKI, in contrast to 7 patients in the placebo group who developed AKI. AKI is defined as in the CS005 protocol: • An absolute increase in serum creatinine of more than or equal to 26.4 μmol/l (0.3 mg/dl) or • A percentage increase in serum creatinine of more than or equal to 50% (1.5-fold from baseline) from Day 0-14 and/or • Urine output less than 0.5 mL/kg per hour for more than 6 hours. • 2) AKI according to the AKIN score as presented in FIG. 3a, and • 3) AKI according to the RIFLE score as presented in FIG. 3b.

[4] = system: Acute Kidney Injury (AKI) in patients undergoing cardiac surgery on cardiopulmonary bypass; type: in vivo; conditions: for kidney function as measured by estimated GFR: seven day post-operative period
Excerpt: The CS007 trial was designed to study both short and long term efficacy signals (FIG. 5).
Primary Aims • Safety: Safety and tolerability vs. placebo • Efficacy: Max post-operative change in absolute values of SCr compared to baseline within the first 7 days after surgery or until discharge from hospital, whichever comes first vs. placebo.
Secondary aims • Composite: • Assess the proportion of patients reaching the composite endpoint of death, need for RRT or a 25% reduction in renal function over a 90 day post-operative period vs. placebo. • AKIN: Assess post-operative incidence of AKI within 48 hours post-surgery • RIFLE: Assess post-operative incidence of AKI within first 7 days post-surgery. • SCr: Changes between surgery and postoperative day 7. • GFR: Changes at day 90 compared to baseline. • eGFR: Changes between surgery and postoperative day 7
Each dosage was provided over a period of 10 minutes. As used throughout this disclosure and unless specified otherwise, “μg/kg” refers to […] AP214 per kg bodyweight of the patient being treated.
Moreover, in the same double-blind study described in this Example, patients undergoing cardiac surgery on cardiopulmonary bypass (CPB) were randomized to placebo (PBO; n=26), AP214 given at either 600 μg/kg (n=25), or 800 μg/kg (n=26), divided into 3 bolus infusions at the predetermined intervals as described above. AKI was determined according to AKIN and RIFLE scores.

[5] = 600 μg/kg bodyweight (3×200 μg/kg) i.v. over 10 minutes each, vs placebo
[6] = 600 μg/kg bodyweight, vs placebo

CSCC[C@H](NC(=O)[C@H](CO)NC(=O)[C@H](Cc1ccc(O)cc1)NC(=O)[C@H](CO)NC(=O)[C@H](CCCCN)NC(=O)[C@H](CCCCN)NC(=O)[C@H](CCCCN)NC(=O)[C@H](CCCCN)NC(=O)[C@H](CCCCN)NC(=O)[C@H](CCCCN)NC(C)=O)C(=O)N[C@@H](CCC(=O)O)C(=O)N[C@@H](Cc1c[nH]cn1)C(=O)N[C@@H](Cc1ccccc1)C(=O)N[C@@H](CCCNC(=N)N)C(=O)N[C@@H](Cc1c[nH]c2ccccc12)C(=O)NCC(=O)N[C@@H](CCCCN)C(=O)N1CCC[C@H]1C(=O)N[C@H](C(N)=O)C(C)C [AP214, Acetyl-Lysyl-L-lysyl-L-lysyl-L-lysyl-L-lysyl-L-lysyl-L-seryl-L-tyrosyl-L-seryl-L-methionyl-Lglutamyl-L-histidyl-L-phenylalanyl-L-arginyl-L-tryptophanyl-glycyl-L-lysyl-L-prolyl-L-valine amide]
renoprotective effect [1]: provides a renoprotective effect
adverse events ([2]; 100 μg/kg over 10 minutes i.v. (slower infusion rate)): did not show these adverse effects
adverse events versus 100 μg/kg over 30 sec and 1 minute ([2]; 200 μg/kg over 30 seconds i.v.): more adverse events
subjects with erythema ([2]; Group 2 (n=6), short infusion times): 6 subjects
adverse events ([2]; Group 2 (n=6): 100 μg/kg over 1 minute, 100 μg/kg over 30 seconds, 200 μg/kg over 30 seconds, i.v.): A large number of adverse events were reported
prevention of AKI as compared to placebo ([3]; 150 μg/kg bodyweight (3×50 μg/kg), same dosing scheme): showed no prevention of AKI
patients who developed AKI (AKI as defined in the CS005 protocol) ([3]; 600 μg/kg (3×200 μg/kg), AP214 group of 12 patients, 7 of 13 in placebo group): 3 patients
development of AKI according to the RIFLE and AKIN scores ([3]; 600 μg/kg bodyweight (3×200 μg/kg)): demonstrated prevention in the development of AKI
decrease in eGFR [3, 5]: prevented a decrease in eGFR
increase in serum creatinine [3, 5]: prevented
increase in carbamide [3, 6]: prevented
increase in cystatin C [3, 6]: prevented an increase in cystatin C
population distribution of extreme serum creatinine values (highest quartile) ([4]; 600 μg/kg): showed a reduction in serum creatinine values at the highest quartile
kidney function as measured by estimated GFR ([4]; 600 μg/kg): increased kidney function
population distribution of extreme serum creatinine values (highest quartile) ([4]; 800 μg/kg): showed a reduction in serum creatinine values at the highest quartile
degree of acute kidney injury compared to placebo ([4]; 800 μg/kg, Day 0-7): displayed lesser degrees of acute kidney injury
incidence of AKI compared with PBO, by surgery type ([4]; 800 μg/kg, combined CABG and valve surgery, multiple valve surgery, chronic kidney disease and CABG (or valve surgery)): numerically lower incidence of AKI
kidney function as measured by estimated GFR ([4]; 800 μg/kg): increased kidney function
